Measurements as given in patent US20250205193A1, “THERAPEUTIC COMPOUND AND SALTS” (Regents of the University of Minnesota, priority 2022, published 2025).
Like-named read-outs stand apart in the source and are kept apart here.

Experiments:
mice = experiment: Single dose acute toxicity study; assay type: in vivo; conditions: single dose 40 mg/kg PO
Description: Additionally, a single dose acute toxicity study (40 mg/kg PO, q.d.) was carried out.

Balb-C mice = experiment: Maximum tolerated dose study; assay type: in vivo; conditions: up to 40 mg/kg PO, q.d.
Description: A maximum tolerated dose study was conducted in Balb-C mice.

67NR cells = experiment: Seahorse XFe96 respiratory experiments in permeabilized cells for pyruvate driven respiration (67NR); assay type: cell-based; conditions: read-out: inhibits pyruvate driven respiration, IC50
Description: 4T1 cells were seeded (20,000 cells/well) onto Seahorse XFe96 well plates and incubated overnight in growth media at 37° C. and 5% CO2 for adherence. […] For pyruvate driven respiration experiments, test compound was injected in port A, followed by rPFO (1 nM) in port B, followed by respective substrate cocktails (FCCP stimulated) in port C, and rotenone and antimycin A (0.5 μM) in port D. Final substrate concentrations for specific tests were as follows: (5 mM pyruvate, 0.5 mM malate, 2 mM dichloroacetate (DCA); 10 mM glutamate, 2 mM DCA; 2 μM rotenone).

[1] = for T1/2: PO 5.00 mg/kg; for F: in vivo, po, 5 mg/kg
Description: (§1) The pharmacokinetics and oral bioavailability of the compound of formula (I) were investigated in mouse following single intravenous and oral gavage.

in vivo = conditions: mouse
Description: as §1

CN(Cc1ccc(C(F)(F)F)cc1)c1ccc2cc(C(=O)O)c(=O)oc2c1 [MN-D7]
toxicity upon examination of internal organs (mice): did not cause any toxicity issues
body weight gains and grooming patterns (Balb-C mice): normal body weight gains and grooming patterns
tolerability (Balb-C mice): well tolerated
IC50 (67NR cells): 0.0178 ± 0.0049 µM
HL_Lambda T1/2 ([1]; G1-Male, IV 1.0 mg/kg): 3.65 h
T1/2 ([1]; G2-Female): 4.41 h
T1/2 ([1]; G2-Male): 4.04 h
F ([1]; female, mouse): 123.84%
F ([1]; male, mouse): 124.96%
mean terminal half-life ([1]; mouse, female, IV dose): 3.15 h
AUC(0-inf) (in vivo; female, iv, 1 mg/kg): 626 ng·h/mL
AUC(0-t) (in vivo; female, iv, 1 mg/kg): 552 ng·h/mL
C0 (in vivo; female, iv, 1 mg/kg): 226 ng/mL
Cmax (in vivo; female, iv, 1 mg/kg): 200 ng/mL
MRT inf (in vivo; female, iv, 1 mg/kg): 4.34 h
MRT last (in vivo; female, iv, 1 mg/kg): 2.95 h
Tmax (in vivo; female, iv, 1 mg/kg): 0.08 h
clearance (in vivo; female, iv, 1 mg/kg): 26.6 mL/min/kg
half-life (in vivo; female, iv, 1 mg/kg): 3.15 h
Vd (in vivo; female, iv, 1 mg/kg, Vss_obs Vss): 6.92 L/kg
Vd (in vivo; female, iv, 1 mg/kg, Vz_obs Vz): 7.26 L/kg
bioavailability (in vivo; female, po): ~124%
half-life (in vivo; female, po): 4.41 h
AUC(0-inf) (in vivo; female, po, 5 mg/kg): 3480 ng·h/mL
AUC(0-t) (in vivo; female, po, 5 mg/kg): 3420 ng·h/mL
Cmax (in vivo; female, po, 5 mg/kg): 1450 ng/mL
MRT inf (in vivo; female, po, 5 mg/kg): 4.39 h
MRT last (in vivo; female, po, 5 mg/kg): 3.88 h
Tmax (in vivo; female, po, 5 mg/kg): 0.08 h
half-life (in vivo; male, iv): 3.65 h
AUC(0-inf) (in vivo; male, iv, 1 mg/kg): 486 ng·h/mL
AUC(0-t) (in vivo; male, iv, 1 mg/kg): 413 ng·h/mL
C0 (in vivo; male, iv, 1 mg/kg): 185 ng/mL
Cmax (in vivo; male, iv, 1 mg/kg): 160 ng/mL
MRT inf (in vivo; male, iv, 1 mg/kg): 4.97 h
MRT last (in vivo; male, iv, 1 mg/kg): 3.17 h
Tmax (in vivo; male, iv, 1 mg/kg): 0.08 h
clearance (in vivo; male, iv, 1 mg/kg): 34.3 mL/min/kg
Vd (in vivo; male, iv, 1 mg/kg, Vss_obs Vss): 10.2 L/kg
Vd (in vivo; male, iv, 1 mg/kg, Vz_obs Vz): 10.8 L/kg
bioavailability (in vivo; male, po): ~125%
half-life (in vivo; male, po): 4.04 h
AUC(0-inf) (in vivo; male, po, 5 mg/kg): 2610 ng·h/mL
AUC(0-t) (in vivo; male, po, 5 mg/kg): 2580 ng·h/mL
Cmax (in vivo; male, po, 5 mg/kg): 890 ng/mL
MRT inf (in vivo; male, po, 5 mg/kg): 4.33 h
MRT last (in vivo; male, po, 5 mg/kg): 4.07 h
Tmax (in vivo; male, po, 5 mg/kg): 0.25 h
